The source of these data is publication PMC3001719, “The heme sensing response regulator HssR in Staphylococcus aureus but not the homologous RR23 in Listeria monocytogenes modulates susceptibility to the antimicrobial peptide plectasin” (BMC Microbiology, 2010).

Molecules are shown by their SMILES. “And” between values parts separate entries of the source, which are not always exact repeats. Identical values can stand only once.

The test system of test [1] is plasmid DNA (pBluescript II SK+). The test can be described thus: DNA-binding analysis by in vitro gel retardation. The note with it: 100 ng plasmid DNA with increasing amounts of peptide, 1 h at room temperature, data not shown. As for the experimental part:
Gel retardation analysis were performed as described by Nan et al by mixing 100 ng of plasmid DNA (pBluescript II SK^+(Stratagene)) with increasing amounts of peptide in 20 μl binding buffer (5% glycerol, 10 mM Tris, 1 mM EDTA, 1 mM dithiothreitol, 20 mM KCL and 50 μg ml^-1 bovine serum albumin). Reaction mixtures were incubated 1 h at room temperature and subjected to 1% agarose gel electrophoresis and visualised using ethidium bromide.

Test [2] concerns S. aureus 8325-4 hssR mutant. The test can be described thus: Growth in TSB with plectasin and/or hemin. In kind it is cell-based, Staphylococcus aureus. The note with it: plectasin 35 μg/ml, 37°C, absorbance at 600 nm, transduced 8325-4 hssR mutant. Here is the method: (§1) Overnight cultures of S. aureus were diluted to an absorbance at 600 nm of 0.05 in TSB with and without 4 μM hemin and/or 35 μg/ml plectasin and grown at 37°C. Measurements of the absorbance were made every 30 minutes.

The subject of test [3] is S. aureus 8325-4 wild type. The test can be described thus: Growth in TSB with plectasin and/or hemin. In kind it is cell-based, Staphylococcus aureus. The note with it: plectasin 35 μg/ml, 37°C, absorbance at 600 nm. Here is the method:
as §1

Test [4] relates to S. aureus 8325-4 hssR::bursa. The test can be described thus: In vitro bacterial killing kinetics. The note with it: plectasin 1× MIC, TSB, 37°C, CFU after 1, 3 and 5 hours; 8325-4 hssR::bursa mutant. Format: cell-based, Staphylococcus aureus. As for the experimental part:
(§2) Overnight cultures of S. aureus wild type […], 8325-4 hssR::bursa and 8325-4 hssR::bursa/pRMC2-hssRS were diluted 1000 fold in TSB and grown 2 hours at 37°C. Samples were taken to time T = 0 and plated for CFU determination. Plectasin (1× MIC) was added, and samples were withdrawn after 1,3 and 5 hours growth at 37°C and plated for CFU determination.

Test [5] relates to S. aureus 8325-4 wild type. The test can be described thus: In vitro bacterial killing kinetics. In kind it is cell-based, Staphylococcus aureus. The conditions noted are these: plectasin 1× MIC, TSB, 37°C, CFU after 1, 3 and 5 hours. As for the experimental part:
as §2

Test [6] has as its system S. aureus wild type and hssR mutants. The test can be described thus: Extracellular protein profile by SDS-PAGE. Format: cell-based, Staphylococcus aureus. The note with it: S. aureus wild type and hssR mutants grown with or without plectasin overnight at 37°C in TSB; data not shown. Here is the method:
Prewarmed TSB and BHI (25 ml) in a 250 ml Erlenmeyer flask was inoculated with S. aureus strains and L. monocytogenes strains, respectively. These flasks were grown with and without plectasin at 37°C overnight (≈ 17 h) with shaking. The next morning, the exact absorbance at 600 nm of the cultures was measured, and 15 ml of culture was centrifuged to precipitate the cells (6 000 RPM; 7 min; 0°C). The supernatant was transferred to a 50 ml Blue cap bottle (placed in an ice/water bath), and the extracellular proteins were precipitated by adding one volume of ice-cold 96% EtOH and left in the refrigerator overnight for proteins to precipitate. Precipitated proteins were collected by centrifugation (11,000 RPM; 30 min; 0°C). Protein pellets were suspended in a volume of 50 mM Tris-HCl (pH 6.8) adjusted to the original absorbance of the overnight culture so that 15 ml of overnight culture with absorbance at 600 nm of 5.0 was suspended in 0.8 ml of 50 mM Tris-HCl (pH 6.8). A sample of 15 μl of the protein extracts was analysed on NuPAGE® 4-12% Bis-Tris gels (Invitrogen) using the X Cell SureLock® Mini-Cell system (Invitrogen) as recommended by the supplier. The gels were Coomassie stained using GelCode® Blue Stain Reagent (Pierce).

Another test has as its system L. monocytogenes. The test can be described thus: MIC of plectasin stated in the text. In kind it is cell-based, Listeria monocytogenes. The conditions noted are these: difference in MIC values between the strains.
For another test, the system named is S. aureus hssR mutants. The test can be described thus: MIC of hssR mutants compared to wild type. Format: cell-based, Staphylococcus aureus. The note with it: ratio of MIC, S. aureus hssR response regulator mutants vs wild type, regardless of the genetic background. As for the experimental part: Minimal inhibitory concentrations (MIC) of plectasin, eurocin, protamine, novicidin, and novispirin G10 were determined using a microbroth dilution method. Colonies from a BHI plate incubated overnight at 37 °C were suspended in MHB pH 7.4 to an absorbance at 546 nm of 0.11-0.12 at 546 nm (approx. 1.0 × 10^8 CFU/ml) and diluted in MHB to a concentration of 5.0 × 10^5 CFU/ml. Ninety μl of bacterial suspension was incubated with 10 μl of peptide solution in polypropylene 96-well plates (Nunc, 442587) for 18-24 h at 37°C. The peptide solutions were made fresh on the day of assay. The range of concentrations assayed were 0.25-256 μg/ml for plectasin and eurocin, 0.125-128 μg/ml for protamine and novispirin G10, and 0.031-32 μg/ml for novicidin. MIC was the lowest peptide concentration at which visual growth was inhibited.

Another test deals with S. aureus wild type. The test can be described thus: Spontaneous mutation control on plectasin plates. Format: cell-based, Staphylococcus aureus. The conditions noted are these: S. aureus wild type grown on TSB with 4, 5 or 10 fold MIC of plectasin. As for the experimental part:
The transposon mutant libraries were screened on agar plates for increased resistance to plectasin as compared to wild-type sensitivity. Wild-type sensitivity was determined by plating approx. 1.0 × 10^7 CFU/ml on TSB agar containing plectasin (S. aureus) and approx. 1.0 × 10^5 CFU/ml on Muller Hinton Broth agar plates (MHB, 212322 Becton Dickinson) with plectasin (L. monocytogenes). Plates were incubated at 37°C for 3 days and inspected for growth. The transposon libraries were screened on TSB agar with 300 μg/ml, 500 or 750 μg/ml plectasin (S. aureus) or MHB plates with 250 μg/ml or 500 μg/ml plectasin (L. monocytogenes) at 37°C for up to 7 days.

Test [7] has as its system L. monocytogenes wild type. The test can be described thus: Spontaneous mutation control on plectasin plates. Format: cell-based, Listeria monocytogenes. The note with it: L. monocytogenes wild type grown on BHI with 4, 5 or 10 fold MIC of plectasin. As for the experimental part: The transposon mutant libraries were screened on agar plates for increased resistance to plectasin as compared to wild-type sensitivity. Wild-type sensitivity was determined by plating approx. 1.0 × 10^7 CFU/ml on TSB agar containing plectasin (S. aureus) and approx. […] Plates were incubated at 37°C for 3 days and inspected for growth. […]

As to `CC[C@H](C)[C@@H]1NC(=O)[C@H](CO)NC(=O)[C@H](CCCCN)NC(=O)[C@@H]2CSSC[C@@H](C(=O)N[C@@H](Cc3ccc(O)cc3)C(=O)O)NC(=O)[C@H](CCCCN)NC(=O)[C@@H]3CSSC[C@H](NC(=O)[C@H](CCC(N)=O)NC(=O)[C@H](CCSC)NC(=O)[C@H](CC(=O)O)NC(=O)[C@H](CC(=O)O)NC(=O)[C@H](CCC(=O)O)NC(=O)[C@H](CC(=O)O)NC(=O)[C@H](Cc4c[nH]c5ccccc45)NC(=O)[C@@H]4CCCN4C(=O)CNC(=O)[C@H](CC(N)=O)NC(=O)[C@@H](NC(=O)CNC(=O)[C@H](Cc4ccccc4)NC(=O)CN)CSSC[C@H](NC(=O)[C@H](Cc4ccc(O)cc4)NC(=O)CNC(=O)CNC(=O)[C@H](CCCCN)NC(=O)[C@H](Cc4ccc(O)cc4)NC(=O)CNC(=O)[C@H](CCCCN)NC1=O)C(=O)N[C@@H](C)C(=O)N[C@@H](CCCCN)C(=O)NCC(=O)NCC(=O)N[C@@H](Cc1ccccc1)C(=O)N[C@@H](C(C)C)C(=O)N3)C(=O)N[C@@H](Cc1c[nH]cn1)C(=O)N[C@@H](CC(N)=O)C(=O)N[C@@H](Cc1c[nH]cn1)C(=O)N2` [plectasin], the “Binding to DNA” value in test [1] is reported as “unable to demonstrate binding”. For the same compound, the “Growth in the presence of plectasin” value is listed as “hardly affected the growth” in [2] and “inhibited the growth” in [3]. Moreover, the results for the “Kinetics of bacterial killing in vitro” value in test [4] and in [5] were “killed slower than the wild type” and “killed rapidly”, respectively. Further, the “Abundance of extracellular proteins” value in [6] is recorded as “no difference in the abundance of extracellular proteins”. In addition, the “Tolerance of L. monocytogenes compared to S. aureus” value with L. monocytogenes was 4-8 fold. In the test on S. aureus hssR mutants, the “Increased resistance of hssR mutants compared to the wild type” value is 2 to 4 fold and 2-4 fold. In addition, the “Spontaneous mutations leading to changes in sensitivity” value (with S. aureus wild type; in test [7]) was “no spontaneous mutations” each time.
